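Growth conditions: 96-well plates. Treatment: test compound, 48 hours, 5 concentrations. Analysis: linear interpolation between bracketing concentrations; unreached endpoints set to highest concentration. Abbreviation: GI50, concentration required for 50% inhibition of growth. At the TGI there is no net growth.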
Columns and labels:
Assay in all cases: growth of human tumour cells (NCI), 48 h
SR leukemia = tested on: SR leukemia
SF-539 CNS = tested on: SF-539 CNS
OVCAR-5 ovarian = tested on: OVCAR-5 ovarian
HT29 colon = tested on: HT29 colon
NCI-H522 lung = tested on: NCI-H522 lung
K-562 leukemia = tested on: K-562 leukemia
MALME-3M melanoma = tested on: MALME-3M melanoma
NCI-H226 lung = tested on: NCI-H226 lung
COLO 205 colon = tested on: COLO 205 colon
IGROV1 ovarian = tested on: IGROV1 ovarian
MCF7 breast = tested on: MCF7 breast
TK-10 renal = tested on: TK-10 renal
SK-OV-3 ovarian = tested on: SK-OV-3 ovarian
HS 578T breast = tested on: HS 578T breast
UACC-62 melanoma = tested on: UACC-62 melanoma
OVCAR-4 ovarian = tested on: OVCAR-4 ovarian
NCI-H23 lung = tested on: NCI-H23 lung
A549 NSCLC = tested on: A549 NSCLC
DU-145 prostate = tested on: DU-145 prostate
HCT-116 colon = tested on: HCT-116 colon
KM12 colon = tested on: KM12 colon
HL-60(TB) leukemia = tested on: HL-60(TB) leukemia
LOX IMVI melanoma = tested on: LOX IMVI melanoma
786-0 renal = tested on: 786-0 renal
NCI-H460 lung = tested on: NCI-H460 lung
CCRF-CEM leukemia = tested on: CCRF-CEM leukemia
ACHN renal = tested on: ACHN renal
MOLT-4 leukemia = tested on: MOLT-4 leukemia
MDA-MB-231 breast = tested on: MDA-MB-231 breast
UO-31 renal = tested on: UO-31 renal
U251 CNS = tested on: U251 CNS
SN12C renal = tested on: SN12C renal
T-47D breast = tested on: T-47D breast
PC-3 prostate = tested on: PC-3 prostate
A498 renal = tested on: A498 renal
M14 melanoma = tested on: M14 melanoma
SW-620 colon = tested on: SW-620 colon
HCT-15 colon = tested on: HCT-15 colon
HOP-62 NSCLC = tested on: HOP-62 NSCLC
MDA-MB-435 = tested on: MDA-MB-435
UACC-257 melanoma = tested on: UACC-257 melanoma
NCI/ADR-RES ovarian = tested on: NCI/ADR-RES ovarian
SF-295 CNS = tested on: SF-295 CNS
SK-MEL-28 melanoma = tested on: SK-MEL-28 melanoma
SF-268 CNS = tested on: SF-268 CNS
HOP-92 NSCLC = tested on: HOP-92 NSCLC
RPMI-8226 leukemia = tested on: RPMI-8226 leukemia
RXF 393 renal = tested on: RXF 393 renal
OVCAR-8 ovarian = tested on: OVCAR-8 ovarian
OVCAR-3 ovarian = tested on: OVCAR-3 ovarian
SNB-19 CNS = tested on: SNB-19 CNS
SNB-75 CNS = tested on: SNB-75 CNS
CAKI-1 renal = tested on: CAKI-1 renal
HCC-2998 colon = tested on: HCC-2998 colon
SK-MEL-2 melanoma = tested on: SK-MEL-2 melanoma
SK-MEL-5 melanoma = tested on: SK-MEL-5 melanoma
BT-549 breast = tested on: BT-549 breast

Structure (SMILES): Cc1cc(Nc2nc(-c3ccc(F)cc3)nc3ccccc23)n[nH]1
- GI50 (SR leukemia): 1.34 µM
- TGI (SR leukemia): 38.4 µM
- GI50 (SF-539 CNS): 2.81 µM
- TGI (SF-539 CNS): 15.4 µM
- GI50 (OVCAR-5 ovarian): 10.1 µM
- TGI (OVCAR-5 ovarian): 34.5 µM
- GI50 (HT29 colon): 0.691 µM
- TGI (HT29 colon): 7.5 µM
- GI50 (NCI-H522 lung): 3.44 µM
- TGI (NCI-H522 lung): 18.8 µM
- GI50 (K-562 leukemia): 3.91 µM
- TGI (K-562 leukemia): 24.1 µM
- GI50 (MALME-3M melanoma): 16.4 µM
- TGI (MALME-3M melanoma): 31.8 µM
- GI50 (NCI-H226 lung): 3.36 µM
- TGI (NCI-H226 lung): 18 µM
- GI50 (COLO 205 colon): 1.35 µM
- TGI (COLO 205 colon): 3.35 µM
- GI50 (IGROV1 ovarian): 0.983 µM
- TGI (IGROV1 ovarian): 9.17 µM
- GI50 (MCF7 breast): 2.79 µM
- TGI (MCF7 breast): 18.8 µM
- GI50 (TK-10 renal): 1.25 µM
- TGI (TK-10 renal): 33.4 µM
- GI50 (SK-OV-3 ovarian): 0.855 µM
- TGI (SK-OV-3 ovarian): 41.8 µM
- GI50 (HS 578T breast): 0.842 µM
- TGI (HS 578T breast): 7.54 µM
- GI50 (UACC-62 melanoma): 3.96 µM
- TGI (UACC-62 melanoma): 19.6 µM
- GI50 (OVCAR-4 ovarian): 3.2 µM
- TGI (OVCAR-4 ovarian): 27.8 µM
- GI50 (NCI-H23 lung): 5.74 µM
- TGI (NCI-H23 lung): 24.9 µM
- GI50 (A549 NSCLC): 1.77 µM
- TGI (A549 NSCLC): 18.1 µM
- GI50 (DU-145 prostate): 6.44 µM
- TGI (DU-145 prostate): > 48.9 µM
- GI50 (HCT-116 colon): 0.76 µM
- TGI (HCT-116 colon): 15.5 µM
- GI50 (KM12 colon): 0.0631 µM
- TGI (KM12 colon): 12 µM
- GI50 (HL-60(TB) leukemia): 2.78 µM
- TGI (HL-60(TB) leukemia): 34.8 µM
- GI50 (LOX IMVI melanoma): 1.05 µM
- TGI (LOX IMVI melanoma): 11.2 µM
- GI50 (786-0 renal): 1.99 µM
- TGI (786-0 renal): 38.1 µM
- GI50 (NCI-H460 lung): 3.17 µM
- TGI (NCI-H460 lung): 21 µM
- GI50 (CCRF-CEM leukemia): 8.55 µM
- TGI (CCRF-CEM leukemia): 39.6 µM
- GI50 (ACHN renal): 0.818 µM
- TGI (ACHN renal): 39.5 µM
- GI50 (MOLT-4 leukemia): 10.1 µM
- TGI (MOLT-4 leukemia): 35.1 µM
- GI50 (MDA-MB-231 breast): 9.15 µM
- TGI (MDA-MB-231 breast): 26.8 µM
- GI50 (UO-31 renal): 0.574 µM
- TGI (UO-31 renal): 15 µM
- GI50 (U251 CNS): 1.75 µM
- TGI (U251 CNS): 21.4 µM
- GI50 (SN12C renal): 3.1 µM
- TGI (SN12C renal): 25.2 µM
- GI50 (T-47D breast): 1.92 µM
- TGI (T-47D breast): 11.8 µM
- GI50 (PC-3 prostate): 2.26 µM
- TGI (PC-3 prostate): 21.4 µM
- GI50 (A498 renal): 0.371 µM
- TGI (A498 renal): 5.21 µM
- GI50 (M14 melanoma): 0.748 µM
- TGI (M14 melanoma): 19.4 µM
- GI50 (SW-620 colon): 2.1 µM
- TGI (SW-620 colon): 15.7 µM
- GI50 (HCT-15 colon): 0.673 µM
- TGI (HCT-15 colon): 33.9 µM
- GI50 (HOP-62 NSCLC): 4.76 µM
- TGI (HOP-62 NSCLC): 20.3 µM
- GI50 (MDA-MB-435): 1.65 µM
- TGI (MDA-MB-435): 16.2 µM
- GI50 (UACC-257 melanoma): 10 µM
- TGI (UACC-257 melanoma): 22.7 µM
- GI50 (NCI/ADR-RES ovarian): 4.5 µM
- TGI (NCI/ADR-RES ovarian): 52.2 µM
- GI50 (SF-295 CNS): 5.36 µM
- TGI (SF-295 CNS): 21.2 µM
- GI50 (SK-MEL-28 melanoma): 8.46 µM
- TGI (SK-MEL-28 melanoma): 21.7 µM
- GI50 (SF-268 CNS): 3.85 µM
- TGI (SF-268 CNS): 24.5 µM
- GI50 (HOP-92 NSCLC): 0.72 µM
- TGI (HOP-92 NSCLC): 8.64 µM
- GI50 (RPMI-8226 leukemia): 9.22 µM
- TGI (RPMI-8226 leukemia): 39.1 µM
- GI50 (RXF 393 renal): 0.757 µM
- TGI (RXF 393 renal): 5.09 µM
- GI50 (OVCAR-8 ovarian): 7.28 µM
- TGI (OVCAR-8 ovarian): 36.9 µM
- GI50 (OVCAR-3 ovarian): 4.9 µM
- TGI (OVCAR-3 ovarian): 31.6 µM
- GI50 (SNB-19 CNS): 8.48 µM
- TGI (SNB-19 CNS): > 93.9 µM
- GI50 (SNB-75 CNS): 0.469 µM
- TGI (SNB-75 CNS): 7.42 µM
- GI50 (CAKI-1 renal): 0.453 µM
- TGI (CAKI-1 renal): 17.6 µM
- GI50 (HCC-2998 colon): 5.24 µM
- TGI (HCC-2998 colon): 25.4 µM
- GI50 (SK-MEL-2 melanoma): 0.811 µM
- TGI (SK-MEL-2 melanoma): 16 µM
- GI50 (SK-MEL-5 melanoma): 7.4 µM
- TGI (SK-MEL-5 melanoma): 20.3 µM
- GI50 (BT-549 breast): 7.3 µM
- TGI (BT-549 breast): 21.6 µM
